What follows are compounds tested on MCF7 (assay: Cytotoxicity against human MCF7 cells assessed as cell survival after 48 hrs by SRB assay). Conditions: MCF7, 48 h.
Assay type: functional, cell-based
Wherever DIZ is given: test concentration or dose not given here.

SMILES	IC50 [µM]
COc1cc(-c2nc3sc4c(c3c(=O)n2-c2nc3ccccc3s2)CCCC4)cc(OC)c1OC	11.5
COc1cc(-c2nc3sc4c(c3c(=O)n2-c2nc3cc([N+](=O)[O-])ccc3s2)CCCC4)cc(OC)c1OC	21.6
COc1cc(-c2nc3sc4c(c3c(=O)n2-c2ccc3c(C)c5ccc(N)cc5nc3c2)CCCC4)cc(OC)c1OC	0.86
NC(=S)n1c(/C=C/c2ccccc2)nc2sc3c(c2c1=O)CCCC3	10.6
NC(=O)n1c(/C=C/c2ccccc2)nc2sc3c(c2c1=O)CCCC3	13.4
O=C(NO)n1c(/C=C/c2ccccc2)nc2sc3c(c2c1=O)CCCC3	23.9
O=C(O)c1ccc(-n2c(/C=C/c3ccccc3)nc3sc4c(c3c2=O)CCCC4)cc1	45.3
NS(=O)(=O)c1ccc(-n2c(/C=C/c3ccccc3)nc3sc4c(c3c2=O)CCCC4)cc1	0.43
Cc1c2ccc(N)cc2nc2cc(-n3c(/C=C/c4ccccc4)nc4sc5c(c4c3=O)CCCC5)ccc12	0.19

These compounds were tested on Staphylococcus aureus (assay: Antibacterial activity against Staphylococcus aureus ATCC 12600 assessed as growth inhibition after 24 to 48 hrs by kirby-bauer disc diffusion method). Conditions: not given.
Assay type: functional

SMILES	diameter of the inhibition zone (DIZ) [mm]
COc1cc(-c2nc3sc4c(c3c(=O)n2-c2nc3ccccc3s2)CCCC4)cc(OC)c1OC	14
COc1cc(-c2nc3sc4c(c3c(=O)n2-c2nc3cc([N+](=O)[O-])ccc3s2)CCCC4)cc(OC)c1OC	15
COc1cc(-c2nc3sc4c(c3c(=O)n2-c2ccc3c(C)c5ccc(N)cc5nc3c2)CCCC4)cc(OC)c1OC	26
NC(=S)n1c(/C=C/c2ccccc2)nc2sc3c(c2c1=O)CCCC3	14
NC(=O)n1c(/C=C/c2ccccc2)nc2sc3c(c2c1=O)CCCC3	16
O=C(NO)n1c(/C=C/c2ccccc2)nc2sc3c(c2c1=O)CCCC3	15
O=C(O)c1ccc(-n2c(/C=C/c3ccccc3)nc3sc4c(c3c2=O)CCCC4)cc1	19
NS(=O)(=O)c1ccc(-n2c(/C=C/c3ccccc3)nc3sc4c(c3c2=O)CCCC4)cc1	14
Cc1c2ccc(N)cc2nc2cc(-n3c(/C=C/c4ccccc4)nc4sc5c(c4c3=O)CCCC5)ccc12	24
CC1(C)S[C@@H]2[C@H](NC(=O)[C@H](N)c3ccccc3)C(=O)N2[C@H]1C(=O)O [AMPICILLIN]	18

Each compound was assayed on Escherichia coli (assay: Antibacterial activity against Escherichia coli ATCC 11775 assessed as growth inhibition after 24 to 48 hrs by kirby-bauer disc diffusion method). Conditions: not given.
Assay type: functional, DSM 30083 = JCM 1649

SMILES	diameter of the inhibition zone (DIZ) [mm]
COc1cc(-c2nc3sc4c(c3c(=O)n2-c2nc3ccccc3s2)CCCC4)cc(OC)c1OC	15
COc1cc(-c2nc3sc4c(c3c(=O)n2-c2nc3cc([N+](=O)[O-])ccc3s2)CCCC4)cc(OC)c1OC	15
COc1cc(-c2nc3sc4c(c3c(=O)n2-c2ccc3c(C)c5ccc(N)cc5nc3c2)CCCC4)cc(OC)c1OC	22
NC(=S)n1c(/C=C/c2ccccc2)nc2sc3c(c2c1=O)CCCC3	13
NC(=O)n1c(/C=C/c2ccccc2)nc2sc3c(c2c1=O)CCCC3	14
O=C(NO)n1c(/C=C/c2ccccc2)nc2sc3c(c2c1=O)CCCC3	13
O=C(O)c1ccc(-n2c(/C=C/c3ccccc3)nc3sc4c(c3c2=O)CCCC4)cc1	16
NS(=O)(=O)c1ccc(-n2c(/C=C/c3ccccc3)nc3sc4c(c3c2=O)CCCC4)cc1	15
Cc1c2ccc(N)cc2nc2cc(-n3c(/C=C/c4ccccc4)nc4sc5c(c4c3=O)CCCC5)ccc12	21
CC1(C)S[C@@H]2[C@H](NC(=O)[C@H](N)c3ccccc3)C(=O)N2[C@H]1C(=O)O [AMPICILLIN]	22

These compounds were tested on Staphylococcus aureus (assay: Antibacterial activity against Staphylococcus aureus ATCC 12600 assessed as growth inhibition by broth microdilution method). Conditions: not given.
Assay type: functional

SMILES	MIC [µg/mL]
COc1cc(-c2nc3sc4c(c3c(=O)n2-c2ccc3c(C)c5ccc(N)cc5nc3c2)CCCC4)cc(OC)c1OC	8
Cc1c2ccc(N)cc2nc2cc(-n3c(/C=C/c4ccccc4)nc4sc5c(c4c3=O)CCCC5)ccc12	13
CC1(C)S[C@@H]2[C@H](NC(=O)[C@H](N)c3ccccc3)C(=O)N2[C@H]1C(=O)O [AMPICILLIN]	48

Each compound was assayed on Bacillus subtilis (assay: Antibacterial activity against Bacillus subtilis ATCC 6051 assessed as growth inhibition after 24 to 48 hrs by kirby-bauer disc diffusion method). Conditions: not given.
Assay type: functional

SMILES	diameter of the inhibition zone (DIZ) [mm]
COc1cc(-c2nc3sc4c(c3c(=O)n2-c2nc3ccccc3s2)CCCC4)cc(OC)c1OC	13
COc1cc(-c2nc3sc4c(c3c(=O)n2-c2nc3cc([N+](=O)[O-])ccc3s2)CCCC4)cc(OC)c1OC	14
COc1cc(-c2nc3sc4c(c3c(=O)n2-c2ccc3c(C)c5ccc(N)cc5nc3c2)CCCC4)cc(OC)c1OC	23
NC(=S)n1c(/C=C/c2ccccc2)nc2sc3c(c2c1=O)CCCC3	13
NC(=O)n1c(/C=C/c2ccccc2)nc2sc3c(c2c1=O)CCCC3	14
O=C(NO)n1c(/C=C/c2ccccc2)nc2sc3c(c2c1=O)CCCC3	12
O=C(O)c1ccc(-n2c(/C=C/c3ccccc3)nc3sc4c(c3c2=O)CCCC4)cc1	14
NS(=O)(=O)c1ccc(-n2c(/C=C/c3ccccc3)nc3sc4c(c3c2=O)CCCC4)cc1	14
Cc1c2ccc(N)cc2nc2cc(-n3c(/C=C/c4ccccc4)nc4sc5c(c4c3=O)CCCC5)ccc12	20
CC1(C)S[C@@H]2[C@H](NC(=O)[C@H](N)c3ccccc3)C(=O)N2[C@H]1C(=O)O [AMPICILLIN]	20

These compounds were tested on Pseudomonas aeruginosa (assay: Antibacterial activity against Pseudomonas aeruginosa ATCC 10145 assessed as growth inhibition by broth microdilution method). Conditions: not given.
Assay type: functional

SMILES	MIC [µg/mL]
COc1cc(-c2nc3sc4c(c3c(=O)n2-c2ccc3c(C)c5ccc(N)cc5nc3c2)CCCC4)cc(OC)c1OC	11
Cc1c2ccc(N)cc2nc2cc(-n3c(/C=C/c4ccccc4)nc4sc5c(c4c3=O)CCCC5)ccc12	18
CC1(C)S[C@@H]2[C@H](NC(=O)[C@H](N)c3ccccc3)C(=O)N2[C@H]1C(=O)O [AMPICILLIN]	56

The compounds below were run on Pseudomonas aeruginosa (assay: Antibacterial activity against Pseudomonas aeruginosa ATCC 10145 assessed as growth inhibition after 24 to 48 hrs by kirby-bauer disc diffusion method). Conditions: not given.
Assay type: functional

SMILES	diameter of the inhibition zone (DIZ) [mm]
COc1cc(-c2nc3sc4c(c3c(=O)n2-c2nc3ccccc3s2)CCCC4)cc(OC)c1OC	15
COc1cc(-c2nc3sc4c(c3c(=O)n2-c2nc3cc([N+](=O)[O-])ccc3s2)CCCC4)cc(OC)c1OC	14
COc1cc(-c2nc3sc4c(c3c(=O)n2-c2ccc3c(C)c5ccc(N)cc5nc3c2)CCCC4)cc(OC)c1OC	25
NC(=S)n1c(/C=C/c2ccccc2)nc2sc3c(c2c1=O)CCCC3	13
NC(=O)n1c(/C=C/c2ccccc2)nc2sc3c(c2c1=O)CCCC3	15
O=C(NO)n1c(/C=C/c2ccccc2)nc2sc3c(c2c1=O)CCCC3	14
O=C(O)c1ccc(-n2c(/C=C/c3ccccc3)nc3sc4c(c3c2=O)CCCC4)cc1	14
NS(=O)(=O)c1ccc(-n2c(/C=C/c3ccccc3)nc3sc4c(c3c2=O)CCCC4)cc1	15
Cc1c2ccc(N)cc2nc2cc(-n3c(/C=C/c4ccccc4)nc4sc5c(c4c3=O)CCCC5)ccc12	21
CC1(C)S[C@@H]2[C@H](NC(=O)[C@H](N)c3ccccc3)C(=O)N2[C@H]1C(=O)O [AMPICILLIN]	17

The compounds below were run on HepG2 (assay: Cytotoxicity against human HepG2 cells assessed as cell survival after 48 hrs by SRB assay). Conditions: HepG2, 48 h.
Assay type: functional, cell-based

SMILES	IC50 [µM]
COc1cc(-c2nc3sc4c(c3c(=O)n2-c2nc3ccccc3s2)CCCC4)cc(OC)c1OC	5.14
COc1cc(-c2nc3sc4c(c3c(=O)n2-c2nc3cc([N+](=O)[O-])ccc3s2)CCCC4)cc(OC)c1OC	36.9
COc1cc(-c2nc3sc4c(c3c(=O)n2-c2ccc3c(C)c5ccc(N)cc5nc3c2)CCCC4)cc(OC)c1OC	5.5
NC(=S)n1c(/C=C/c2ccccc2)nc2sc3c(c2c1=O)CCCC3	17.7
NC(=O)n1c(/C=C/c2ccccc2)nc2sc3c(c2c1=O)CCCC3	18.5
O=C(NO)n1c(/C=C/c2ccccc2)nc2sc3c(c2c1=O)CCCC3	52
O=C(O)c1ccc(-n2c(/C=C/c3ccccc3)nc3sc4c(c3c2=O)CCCC4)cc1	36.9
NS(=O)(=O)c1ccc(-n2c(/C=C/c3ccccc3)nc3sc4c(c3c2=O)CCCC4)cc1	1.29
Cc1c2ccc(N)cc2nc2cc(-n3c(/C=C/c4ccccc4)nc4sc5c(c4c3=O)CCCC5)ccc12	5.82

From ChEMBL document CHEMBL2401715, “Synthesis, antitumor and antibacterial activities of some novel tetrahydrobenzo[4,5]thieno[2,3-d]pyrimidine derivatives” (Eur J Med Chem, 2013)
